The record followed here is patent US20130137644A1, “CELL PENETRATING PEPTIDE CONJUGATES FOR DELIVERING OF NUCLEIC ACIDS INTO A CELL” (priority 2005, published 2013).

This series in a line: Body weight evolution, apparent toxicity during the efficacy experiment. The note with it: 48.15 μmol/kg i.v. Q1D5; course of experiment 80 days. It is filed as in vivo, NMRI nude mice. The procedure: Animal experiments were performed according to ethical guidelines of animal experimentation. The day of the first injection (6 days after the graft), mice were randomized in 7 groups. Mice were treated by intravenous injection in the lateral tail vein at a constant volume of 10 microL/g. Groups were as follows:
During the course of experiment body weight and tumor size were controlled every 2 or 3 days (except weekends). […] Mortality of animals was recorded every day except the weekend.
During the efficacy experiment, body weight was monitored twice weekly. Treatment toxicity was assessed based on clinical signs and body weight evolution.

SMILES strings stand for the structures.

With `CCc1c2c(nc3ccc(OC(=O)N4CCC(N5CCCCC5)CC4)cc13)-c1cc3c(c(=O)n1C2)COC(=O)[C@]3(O)CC` [irinotecan, Irinotecan], the body weight loss is recorded as approximately 20%.
